Experimental data reported in paper PMC5982655, “Interaction of the New Monofunctional Anticancer Agent Phenanthriplatin With Transporters for Organic Cations” (Frontiers in Chemistry, 2018).

Experiments:
Format in all cases: cell-based
[1] = target: T1, hOCT1 (Homo sapiens, UniProt O15245); experiment: Inhibition of ASP+ uptake in HEK 293 cells expressing hOCT1; settings: HEK 293 hOCT1, 1 μM ASP+
T1 construct: expressed in transfected cells; gift of H. Koepsell
T1 sequence (O15245 1-554): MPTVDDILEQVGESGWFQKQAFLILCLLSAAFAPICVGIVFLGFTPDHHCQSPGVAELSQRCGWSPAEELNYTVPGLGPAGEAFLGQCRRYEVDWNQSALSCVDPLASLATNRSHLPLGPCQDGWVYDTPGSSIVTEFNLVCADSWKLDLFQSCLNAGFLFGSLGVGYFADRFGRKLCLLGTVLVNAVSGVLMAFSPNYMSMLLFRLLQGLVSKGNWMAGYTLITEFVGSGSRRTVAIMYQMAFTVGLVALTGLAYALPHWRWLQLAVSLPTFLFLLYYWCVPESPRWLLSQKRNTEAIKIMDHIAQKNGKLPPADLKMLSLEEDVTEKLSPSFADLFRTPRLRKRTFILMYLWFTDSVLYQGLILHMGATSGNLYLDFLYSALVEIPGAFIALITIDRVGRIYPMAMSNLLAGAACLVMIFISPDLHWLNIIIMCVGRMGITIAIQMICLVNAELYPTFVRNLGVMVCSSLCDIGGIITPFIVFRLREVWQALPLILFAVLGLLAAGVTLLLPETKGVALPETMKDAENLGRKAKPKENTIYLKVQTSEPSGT
Description: (§1) The interaction of phenanthriplatin with transporters for organic cations (OCT1-3, MATE1, and MATE2K) was investigated by measuring its effects on the uptake of the fluorescent organic cation 4-(4-dimethylamino)styryl-N-methylpyridinium (ASP^+). Microfluorometric measurements of ASP^+ uptake were performed with a fluorescence plate reader (Infinity 200, Tecan, Crailsheim, Germany; excitation at 465 nm, emission at 590 nm) as described previously for cultured HEK 293 cells (Wilde et al., [2009]). Before measurements, the culture medium in the wells of the 96 well microtiter plate containing HEK 293 cells was replaced by a HCO3- -free Ringer-like solution containing (in mM) NaCl 145, K2HPO4 1.6, KH2PO4 0.4, D-glucose 5, MgCl2 1, calcium gluconate 1.3, and pH adjusted to 7.4. Fluorescence was measured dynamically at 37°C in each well before and after ASP^+ addition to HCO3- -free Ringer-like solution, alone or together with increasing phenanthriplatin concentrations, and plotted versus time. ASP^+ (final concentration 1 or 10 μM for experiments with OCTs or MATEs, respectively) was added after the third sampling interval. Emission from the complete area of the well bottom was analyzed four times and averaged for each well. […] Background fluorescence was measured for each plate in wells with identical solutions containing no cells and subtracted from each well containing cells. Experiments were performed with cells from one passage of the same day with controls and test replicates in the same plate.
(§2) Data are presented as mean values ± SEM, with (n) referring to the number of wells. IC50 values defined as the concentration of platinum agent required to inhibit uptake of ASP^+ by 50% and EC50 values used to assess cell viability were obtained by sigmoidal concentration-response curve fitting using GraphPad Prism, Version 5.3 (GraphPad Software, San Diego, USA). […] For multiple comparisons, ANOVA with Bonferroni post-test was used. A P-value < 0.05 was considered statistically significant.

[2] = target: T2, hOCT3 (Homo sapiens, UniProt O75751); experiment: Inhibition of ASP+ uptake in HEK 293 cells expressing hOCT3; settings: HEK 293 hOCT3, 1 μM ASP+
T2 construct: expressed in transfected cells; gift of H. Koepsell
T2 sequence (O75751 1-556): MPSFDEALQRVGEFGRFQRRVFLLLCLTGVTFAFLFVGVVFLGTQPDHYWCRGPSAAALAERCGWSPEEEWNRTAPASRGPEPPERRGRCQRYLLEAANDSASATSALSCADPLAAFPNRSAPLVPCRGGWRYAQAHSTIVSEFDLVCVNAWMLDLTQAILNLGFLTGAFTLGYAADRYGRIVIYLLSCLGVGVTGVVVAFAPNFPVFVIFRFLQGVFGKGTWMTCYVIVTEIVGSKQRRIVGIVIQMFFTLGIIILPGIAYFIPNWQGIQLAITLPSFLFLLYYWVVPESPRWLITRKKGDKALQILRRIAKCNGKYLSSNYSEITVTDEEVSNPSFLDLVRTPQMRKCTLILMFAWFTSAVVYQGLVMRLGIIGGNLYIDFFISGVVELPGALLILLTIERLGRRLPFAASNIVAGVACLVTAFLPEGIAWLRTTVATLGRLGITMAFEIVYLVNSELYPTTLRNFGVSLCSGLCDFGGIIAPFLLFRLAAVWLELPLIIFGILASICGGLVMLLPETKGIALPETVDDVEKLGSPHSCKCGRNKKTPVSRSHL
Description: as §1, with “Experiments were performed with cells from one passage of the same day with controls and test replicates in the same plate.” left out

[3] = target: T3, hMATE1 (Homo sapiens, UniProt Q96FL8); experiment: Inhibition of ASP+ uptake in HEK 293 cells expressing hMATE1; settings: HEK 293 hMATE1, 10 μM ASP+
T3 construct: expressed in transfected cells
T3 sequence (Q96FL8 1-570): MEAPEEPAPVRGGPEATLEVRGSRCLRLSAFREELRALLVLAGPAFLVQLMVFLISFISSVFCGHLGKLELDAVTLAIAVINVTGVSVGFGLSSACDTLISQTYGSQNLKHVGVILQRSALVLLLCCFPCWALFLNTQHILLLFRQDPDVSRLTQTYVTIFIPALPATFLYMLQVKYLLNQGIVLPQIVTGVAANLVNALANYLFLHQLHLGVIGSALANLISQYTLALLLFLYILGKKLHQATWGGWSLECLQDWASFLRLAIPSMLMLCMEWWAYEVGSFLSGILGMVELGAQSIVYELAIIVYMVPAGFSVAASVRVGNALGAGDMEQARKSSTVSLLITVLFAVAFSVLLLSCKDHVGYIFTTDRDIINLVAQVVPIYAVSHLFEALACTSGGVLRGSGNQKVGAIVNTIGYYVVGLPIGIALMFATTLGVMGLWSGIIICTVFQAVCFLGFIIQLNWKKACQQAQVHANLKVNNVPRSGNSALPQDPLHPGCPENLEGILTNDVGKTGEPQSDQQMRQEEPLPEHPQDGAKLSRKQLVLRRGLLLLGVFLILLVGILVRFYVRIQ
Description: as §1, §2

IC50 [1]: 19 µM | logIC50 (logEC50) ± SEM for inhibition of ASP+ uptake [1]: −4.72 ± 0.21 | IC50 [2]: 21 µM | logIC50 (logEC50) ± SEM for inhibition of ASP+ uptake [2]: −4.67 ± 0.07 | IC50 [3]: 101 µM | logIC50 (logEC50) ± SEM for inhibition of ASP+ uptake [3]: −3.99 ± 0.21
Compound: N.N.[Cl][Pt+].c1ccc2c(c1)cnc1ccccc12 [phenanthriplatin, cis-[Pt(NH3)2Cl(phenanthridine)]^+]
